The text below walks through data of patent US20240182481A1 (Tango Therapeutics, Inc., priority 2021, published 2024).

SMILES strings stand for the structures.

The target in one experiment is USP1-UAF1 (Homo sapiens, UniProt O94782). Nature of the experiment: Ubiquitin Rhodamine assay for USP1-UAF1 activity. It counts as biochemical. The protocol: Certain compounds of the disclosure were assessed for USP1-UAF1 activity in a Ubiquitin Rhodamine assay as described in Example 135.
In experiment [1] the test system is MDA-MB-436 (BRCA1 mutant) cell line. The experiment is described as follows: Viability assay in BRCA1 mutant cell line MDA-MB-436. The conditions noted are these: Homo sapiens, MDA-MB-436, viability, BRCA1 mutant MDA-MB-436; read-out: MDA-MB-436 rel IC50. It counts as cell-based. From the text:
(§1) Table 1 also indicates IC50 values in a viability assay for a non-isogenic pair of BRCA1 mutant (column 5—MDA-MB-436) and BRCA1 WT (column 6—HCC1954) cell lines. These values indicate the effect of treatment with compound on cell survival.

The test system of experiment [2] is HCC1954 (BRCA1 WT) cell line. The experiment is described as follows: Viability assay in BRCA1 WT cell line HCC1954. Type of experiment: cell-based. The conditions noted are these: for IC50: Homo sapiens, read-out: HCC 1954 IC50 rel IC50.
Text: as §1

For a further experiment, the system named is monoubiquitinated PCNA. The experiment is described as follows: AlphaLISA assay measuring monoubiquitinated PCNA in MDA-MB-436. Type of experiment: cell-based. The conditions noted are these: Homo sapiens, read-out: Alpha LISA IC50. From the text:
Table 1 also indicates IC50 values for exemplary compounds in an AlphaLISA assay measuring monoubiquitinated PCNA in a BRCA1 mutant cell line (MDA-MB-436; column 7).

Sequence of USP1-UAF1 (O94782 whole entry): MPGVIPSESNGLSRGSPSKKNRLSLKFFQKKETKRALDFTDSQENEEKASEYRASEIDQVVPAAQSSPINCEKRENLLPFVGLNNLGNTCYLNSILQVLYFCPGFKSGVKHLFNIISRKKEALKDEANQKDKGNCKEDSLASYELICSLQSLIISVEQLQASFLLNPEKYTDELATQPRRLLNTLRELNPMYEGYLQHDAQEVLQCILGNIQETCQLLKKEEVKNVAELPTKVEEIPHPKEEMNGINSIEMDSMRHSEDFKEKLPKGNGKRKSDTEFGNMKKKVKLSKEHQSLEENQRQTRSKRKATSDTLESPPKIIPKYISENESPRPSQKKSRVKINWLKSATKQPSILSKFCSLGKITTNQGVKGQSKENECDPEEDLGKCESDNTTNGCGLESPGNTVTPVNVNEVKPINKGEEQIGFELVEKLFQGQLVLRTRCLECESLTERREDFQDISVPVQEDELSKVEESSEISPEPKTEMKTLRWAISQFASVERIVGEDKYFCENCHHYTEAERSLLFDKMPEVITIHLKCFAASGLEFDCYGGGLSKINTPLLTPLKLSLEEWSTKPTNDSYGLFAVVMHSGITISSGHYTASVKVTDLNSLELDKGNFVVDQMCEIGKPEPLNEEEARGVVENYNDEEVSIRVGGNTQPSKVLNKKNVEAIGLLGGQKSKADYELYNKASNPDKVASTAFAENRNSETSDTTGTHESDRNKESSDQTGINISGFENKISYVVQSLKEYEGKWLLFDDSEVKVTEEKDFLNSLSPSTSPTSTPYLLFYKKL
Sequence of USP1-UAF1 (Q8TAF3 whole entry partner): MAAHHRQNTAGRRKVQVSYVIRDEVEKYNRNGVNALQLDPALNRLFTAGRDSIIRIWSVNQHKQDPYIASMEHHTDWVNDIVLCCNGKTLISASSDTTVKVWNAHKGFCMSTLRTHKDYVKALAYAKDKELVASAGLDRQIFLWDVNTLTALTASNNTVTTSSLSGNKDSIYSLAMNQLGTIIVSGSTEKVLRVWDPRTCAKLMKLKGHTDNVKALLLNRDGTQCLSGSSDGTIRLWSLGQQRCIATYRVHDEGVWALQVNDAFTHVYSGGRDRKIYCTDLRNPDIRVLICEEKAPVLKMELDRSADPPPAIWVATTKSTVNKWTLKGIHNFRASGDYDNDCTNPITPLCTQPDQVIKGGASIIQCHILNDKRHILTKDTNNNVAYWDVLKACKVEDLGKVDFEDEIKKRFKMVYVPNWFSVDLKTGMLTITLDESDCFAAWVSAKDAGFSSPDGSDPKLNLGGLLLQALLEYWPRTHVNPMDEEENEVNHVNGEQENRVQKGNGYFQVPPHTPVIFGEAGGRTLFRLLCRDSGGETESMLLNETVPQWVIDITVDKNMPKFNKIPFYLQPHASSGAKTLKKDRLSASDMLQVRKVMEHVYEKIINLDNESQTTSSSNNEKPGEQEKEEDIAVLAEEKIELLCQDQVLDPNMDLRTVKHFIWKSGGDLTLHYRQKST

Consider `CCn1cc(C(F)(F)F)nc1-c1ccc(Cc2nn(C)c3cnc(-c4c(OC)ncnc4C4CC4)nc23)cc1` [Compound 106, 5-(4-cyclopropyl-6-methoxypyrimidin-5-yl)-3-(4-(1-ethyl-4-(trifluoromethyl)-1H-imidazol-2-yl)benzyl)-1-methyl-1H-pyrazolo[4,3-d]pyrimidine], for which the IC50 against USP1-UAF1 is < 30 nM; in experiment [1], < 100 nM; in experiment [2], ≥ 10000 nM; in the experiment on monoubiquitinated PCNA, < 100 nM.
For the molecule `COc1ncnc(C2CC2)c1-c1ncc2nn(C(C)C)c(Cc3ccc(-c4nc(C(F)(F)F)cn4C)cc3)c2n1` (single isomer, unassigned) [Compound 104, 5-(4-cyclopropyl-6-methoxy-pyrimidin-5-yl)-2-isopropyl-3-[[4-[1-methyl-4-(trifluoromethyl)imidazol-2-yl]phenyl]methyl]pyrazolo[4,3-d]pyrimidine], the IC50 is 100 to 10000 nM on USP1-UAF1, 100 to 250 nM in experiment [1], ≥ 10000 nM in experiment [2] and 100 to 250 nM in the experiment with monoubiquitinated PCNA.
Consider `COc1ncnc(C2CC2)c1-c1ncc2c(n1)c(Cc1ccc(-c3nc(C(F)(F)F)cn3C)cc1)cn2C(C)C` [Compound 91], for which the IC50 against USP1-UAF1 was 100 to 10000 nM; in experiment [1], 100 to 250 nM; in experiment [2], ≥ 10000 nM; in the experiment with monoubiquitinated PCNA, 100 to 250 nM.
Take `COc1ncnc(C2(F)CC2)c1-c1ncc2[nH]nc(Cc3ccc(-c4nc(C(F)(F)F)cn4C)cc3)c2n1` [Compound 202, 5-[4-(1-fluorocyclopropyl)-6-methoxy-pyrimidin-5-yl]-3-[[4-[1-methyl-4-(trifluoromethyl)imidazol-2-yl]phenyl]methyl]-1H-pyrazolo[4,3-d]pyrimidine]: the IC50 was < 30 nM at USP1-UAF1, < 100 nM in experiment [1], ≥ 10000 nM in experiment [2] and < 100 nM with monoubiquitinated PCNA.
For the molecule `[2H]C([2H])([2H])Oc1ncnc(C2CC2)c1-c1ncc2[nH]cc(Cc3ccc(-c4nc(C(F)(F)F)cn4C)cc3)c2n1` [Compound 204, 2-[4-cyclopropyl-6-(trideuteriomethoxy)pyrimidin-5-yl]-7-[[4-[1-methyl-4-(trifluoromethyl)imidazol-2-yl]phenyl]methyl]-5H-pyrrolo[3,2-d]pyrimidine], the IC50 was < 30 nM on USP1-UAF1, < 100 nM in experiment [1], ≥ 10000 nM in experiment [2] and < 100 nM in the experiment on monoubiquitinated PCNA.
As for `COc1ncnc(C2CC2)c1-c1ncc2[nH]nc(Cc3ccc(-c4nc(C(F)(F)F)cn4C)cc3F)c2n1` [Compound 189, 5-(4-cyclopropyl-6-methoxy-pyrimidin-5-yl)-3-[[2-fluoro-4-[1-methyl-4-(trifluoromethyl)imidazol-2-yl]phenyl]methyl]-1H-pyrazolo[4,3-d]pyrimidine], the IC50 was 30 to 100 nM at USP1-UAF1, < 100 nM in experiment [1], ≥ 10000 nM in experiment [2] and < 100 nM in the experiment on monoubiquitinated PCNA.
Consider `CC(C)n1cc(C(F)(F)F)nc1-c1ccc(C(O)c2c[nH]c3cnc(-c4c(OC(F)F)ncnc4C4CC4)nc23)cc1` (stereo not shown) [Compound 92], for which the figures for the IC50 (at USP1-UAF1; in experiment [1]; with monoubiquitinated PCNA) were 30 to 100 nM, < 100 nM and < 100 nM, respectively. Further, the “HCC 1954 IC50 rel IC50” value in experiment [2] is reported as “dd”.
`COc1ncnc(C2CC2)c1-c1ncc2[nH]nc(Cc3cc(F)c(-c4nc(C(F)(F)F)cn4C)c(F)c3)c2n1` [Compound 171, 5-(4-cyclopropyl-6-methoxy-pyrimidin-5-yl)-3-[[3,5-difluoro-4-[1-methyl-4-(trifluoromethyl)imidazol-2-yl]phenyl]methyl]-1H-pyrazolo[4,3-d]pyrimidine]: the IC50 is < 30 nM against USP1-UAF1, < 100 nM in experiment [1], ≥ 10000 nM in experiment [2] and < 100 nM in the experiment with monoubiquitinated PCNA.
As for `Cn1cc(C(F)(F)F)nc1-c1ccc(Cc2c(CN)[nH]c3cnc(-c4cccnc4C4CC4)nc23)cc1` [Compound 186], the IC50 against USP1-UAF1 is 30 to 100 nM; in experiment [1], 100 to 250 nM; in experiment [2] it was 250 to 10000 nM; in the experiment with monoubiquitinated PCNA, 100 to 250 nM.
`COc1ncnc(C2CC2)c1-c1ncc2[nH]nc(Cc3ccc(-c4nc(C(F)(F)F)cn4C)c(C)c3)c2n1` [Compound 95, 5-(4-cyclopropyl-6-methoxy-pyrimidin-5-yl)-3-[[3-methyl-4-[1-methyl-4-(trifluoromethyl)imidazol-2-yl]phenyl]methyl]-1H-pyrazolo[4,3-d]pyrimidine]: the IC50 on USP1-UAF1 was < 30 nM; in experiment [1], < 100 nM; in experiment [2], ≥ 10000 nM; in the experiment on monoubiquitinated PCNA, < 100 nM.
Turning to `Cn1cc(C(F)(F)F)nc1-c1ccc(C(O)c2c[nH]c3cnc(-c4c(OC(F)F)ncnc4C4CC4)nc23)cc1` (single isomer, unassigned) [Compound 103], the IC50 is 30 to 100 nM at USP1-UAF1, < 100 nM in experiment [1], ≥ 10000 nM in experiment [2] and < 100 nM in the experiment with monoubiquitinated PCNA.
Regarding `Cn1cc(C(F)(F)F)nc1-c1ccc(Cc2c[nH]c3cnc(-c4c(C5CC5)ncnc4C4CC4)nc23)cc1` [Compound 193, 2-(4,6-dicyclopropylpyrimidin-5-yl)-7-[[4-[1-methyl-4-(trifluoromethyl)imidazol-2-yl]phenyl]methyl]-5H-pyrrolo[3,2-d]pyrimidine], the IC50 on USP1-UAF1 was < 30 nM; in experiment [1], < 100 nM; in experiment [2], ≥ 10000 nM; in the experiment with monoubiquitinated PCNA, < 100 nM.
As to `CC(C)n1cc(C(F)(F)F)nc1-c1ccc(Cc2c[nH]c3cnc(-c4cccnc4OC(F)F)nc23)cc1` [Compound 28, 2-[2-(difluoromethoxy)-3-pyridyl]-7-[[4-[1-isopropyl-4-(trifluoromethyl)imidazol-2-yl]phenyl]methyl]-5H-pyrrolo[3,2-d]pyrimidine], the half-maximal inhibitory concentration (IC50) was 30 to 100 nM against USP1-UAF1, < 100 nM in experiment [1], ≥ 10000 nM in experiment [2] and 100 to 250 nM in the experiment with monoubiquitinated PCNA.
The corresponding values for `COc1ncnc(C2CC2)c1-c1ncc2[nH]nc(Cc3cc(F)c(-n4nc(C(F)(F)F)cc4C)c(F)c3)c2n1` [Compound 129] are < 30 nM, 100 to 250 nM, 250 to 10000 nM and 100 to 250 nM.
The corresponding values for `COc1ncnc(C2CC2)c1-c1ncc2[nH]cc(C(O)(c3ccc(-c4nc(C(F)(F)F)cn4C)cc3)C(C)C)c2n1` (stereo not shown) [Compound 199] are 100 to 10000 nM, 100 to 250 nM, 250 to 10000 nM and 100 to 250 nM.
The corresponding values for `COc1ncnc(C2CC2)c1-c1nc(C(F)(F)F)c2[nH]cc(Cc3ccc(-c4nc(C(F)(F)F)cn4C)cc3)c2n1` [Compound 121, 2-(4-cyclopropyl-6-methoxy-pyrimidin-5-yl)-7-[[4-[1-methyl-4-(trifluoromethyl)imidazol-2-yl]phenyl]methyl]-4-(trifluoromethyl)-5H-pyrrolo[3,2-d]pyrimidine] are < 30 nM, < 100 nM, ≥ 10000 nM and < 100 nM.
With `Cn1cc(C(F)(F)F)nc1-c1ccc(Cc2c[nH]c3cnc(-c4cccnc4OC4CC4)nc23)cc1` [Compound 41, 2-cyclopropoxy-3-[7-([4-[1-methyl-4-(trifluoromethyl)imidazol-2-yl]phenyl]methyl)-5H-pyrrolo[3,2-d]pyrimidin-2-yl]pyridine], the IC50 is 30 to 100 nM at USP1-UAF1, 100 to 250 nM in experiment [1], ≥ 10000 nM in experiment [2] and < 100 nM with monoubiquitinated PCNA.
On the same counts, the results for `CC(C)c1ccccc1-c1ncc2c(n1)c(Cc1ccc(-c3nc(C(F)(F)F)cn3C)cc1)cn2CCO` [Compound 57, 2-[2-(2-isopropylphenyl)-7-[[4-[1-methyl-4-(trifluoromethyl)imidazol-2-yl]phenyl]methyl]pyrrolo[3,2-d]pyrimidin-5-yl]ethanol] are < 30 nM, 250 to 10000 nM, ≥ 10000 nM and 100 to 250 nM.
Take `COc1ncnc(C2CC2)c1-c1ncc2[nH]cc(Sc3ccc(-c4nc(C(F)(F)F)cn4C)cc3)c2n1` [Compound 180]: the IC50 against USP1-UAF1 was 100 to 10000 nM; in experiment [1], 100 to 250 nM; in experiment [2] it was ≥ 10000 nM; in the experiment with monoubiquitinated PCNA, 100 to 250 nM.
As to `COc1ncnc(C2CC2)c1-c1ncc2[nH]cc(C3(c4ccc(-c5nc(C(F)(F)F)cn5C)cc4)CC3)c2n1` [Compound 47, 2-(4-cyclopropyl-6-methoxy-pyrimidin-5-yl)-7-[1-[4-[1-methyl-4-(trifluoromethyl)imidazol-2-yl]phenyl]cyclopropyl]-5H-pyrrolo[3,2-d]pyrimidine], the IC50 was 30 to 100 nM at USP1-UAF1, 250 to 10000 nM in experiment [1], ≥ 10000 nM in experiment [2] and 100 to 250 nM in the experiment with monoubiquitinated PCNA.
The corresponding values for `CC(C)c1ccccc1-c1ncc2[nH]nc(Cc3ccc(-c4nc(C(F)(F)F)cn4C)cc3)c2n1` [Compound 27, 5-(2-isopropylphenyl)-3-[[4-[1-methyl-4-(trifluoromethyl)imidazol-2-yl]phenyl]methyl]-1H-pyrazolo[4,3-d]pyrimidine] are < 30 nM, < 100 nM, ≥ 10000 nM and < 100 nM.
On the same counts, the results for `COc1ncnc(C2CC2)c1-c1ncc2[nH]cc(Cc3ccc(-c4nc(C(F)(F)F)cn4C)cc3C)c2n1` [Compound 203, 2-(4-cyclopropyl-6-methoxy-pyrimidin-5-yl)-7-[[2-methyl-4-[1-methyl-4-(trifluoromethyl)imidazol-2-yl]phenyl]methyl]-5H-pyrrolo[3,2-d]pyrimidine] are < 30 nM, < 100 nM, ≥ 10000 nM and < 100 nM.
